From patent publication US8679530B2 (Your Energy Systems, LLC, priority 2004, dated 2014)

Legend:
[1] = Case report Example 5: blood pressure in diabetic hypertensive; assay type: in vivo, human; conditions: lisinopril 20 mg twice a day, over 3 days; before 188/92
Procedure: The patient with diabetes requiring insulin therapy also has a long history of elevated blood pressure. The blood pressure was previously controlled using lisinopril 20 mg. daily. […] The dose of lisinopril was lowered to 20 mg once a day.

[2] = intravenous administration; cited from earlier work

SMILES | blood pressure [1] | blood flow in peripheral vascular disease [2]
NCCCC[C@H](N[C@@H](CCc1ccccc1)C(=O)O)C(=O)N1CCC[C@H]1C(=O)O [lisinopril] | 145/92 | 
N[C@@H](CCC(=O)N[C@@H](CS)C(=O)NCC(=O)O)C(=O)O [reduced glutathione, gamma-glutamyl-cysteinyl-glycine] |  | benefit in improving blood flow
